According to ChEMBL document CHEMBL4433214, “Investigation around the Oxadiazole Core in the Discovery of a New Chemotype of Potent and Selective FXR Antagonists” (ACS Med Chem Lett, 2019):
Values after ≈ are worked out from the molar mass of the structure shown. Active and inactive are the calls of the source. The rule behind the calls is not given here.

Columns and labels:
[1] = biological target: T1, Bile acid receptor (Homo sapiens) (UniProt Q96RI1); assay: Transactivation of human FXR transfected in HepG2 cells at 10 uM by luciferase reporter assay; type: cell-based
T1 sequence (whole entry): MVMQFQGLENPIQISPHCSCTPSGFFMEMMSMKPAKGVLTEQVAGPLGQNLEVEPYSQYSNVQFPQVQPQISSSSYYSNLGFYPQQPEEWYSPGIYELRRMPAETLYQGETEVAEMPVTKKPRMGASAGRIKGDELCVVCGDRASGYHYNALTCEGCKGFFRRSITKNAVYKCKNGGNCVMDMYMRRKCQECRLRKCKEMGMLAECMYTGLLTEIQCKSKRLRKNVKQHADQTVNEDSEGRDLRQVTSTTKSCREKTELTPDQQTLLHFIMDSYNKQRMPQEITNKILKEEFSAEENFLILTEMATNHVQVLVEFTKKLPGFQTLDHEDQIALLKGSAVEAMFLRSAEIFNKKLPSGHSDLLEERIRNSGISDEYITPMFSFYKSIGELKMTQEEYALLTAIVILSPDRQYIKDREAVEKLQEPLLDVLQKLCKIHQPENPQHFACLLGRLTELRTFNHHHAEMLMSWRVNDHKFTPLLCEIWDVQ

[2] = biological target: T1, Bile acid receptor (Homo sapiens); assay: Antagonist activity at human FXR in HepG2 cells assessed as reversal of CDCA-induced increase in OSTalpha mRNA expression level at 0.1 to 1 uM dosed after 24 hrs starvation followed by CDCA addition and measured after 18 hrs by RT-PCR analysis
[3] = biological target: T2, Peroxisome proliferator-activated receptor gamma (Homo sapiens) (UniProt P37231); assay: Antagonist activity at human PPARgamma transfected in HepG2 at 5 uM in presence of PPARgamma agonist rosiglitazone by luciferase reporter assay; type: cell-based
T2 sequence (whole entry): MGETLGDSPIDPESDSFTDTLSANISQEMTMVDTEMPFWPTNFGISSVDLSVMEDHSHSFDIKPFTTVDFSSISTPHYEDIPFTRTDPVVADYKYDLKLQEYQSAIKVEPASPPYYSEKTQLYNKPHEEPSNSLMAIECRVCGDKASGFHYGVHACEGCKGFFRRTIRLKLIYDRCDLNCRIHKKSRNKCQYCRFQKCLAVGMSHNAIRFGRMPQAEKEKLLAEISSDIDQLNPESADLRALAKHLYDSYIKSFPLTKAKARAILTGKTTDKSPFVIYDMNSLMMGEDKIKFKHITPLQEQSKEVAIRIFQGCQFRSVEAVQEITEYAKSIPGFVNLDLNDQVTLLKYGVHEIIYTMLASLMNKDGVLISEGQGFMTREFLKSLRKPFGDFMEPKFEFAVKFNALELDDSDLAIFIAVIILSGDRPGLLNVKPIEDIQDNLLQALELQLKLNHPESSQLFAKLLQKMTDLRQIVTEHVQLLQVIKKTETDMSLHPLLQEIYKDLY

[4] = biological target: T1, Bile acid receptor (Homo sapiens); assay: Antagonist activity at human FXR in HepG2 cells assessed as reversal of CDCA-induced increase in […] mRNA expression level at 0.1 to 1 uM dosed after 24 hrs starvation followed by CDCA addition and measured after 18 hrs by RT-PCR analysis
[5] = Aqueous solubility of compound in pH 7.4 PBS buffer incubated for 24 hrs under gently shaking condition by LC-MS/MS analysis; type: physicochemical
[6] = biological target: T3, Oxysterols receptor LXR-beta (Homo sapiens) (UniProt P55055); assay: Antagonist activity at human LXRbeta transfected in HepG2 at 5 uM in presence of LXRbeta agonist GW3965 by luciferase reporter assay; type: cell-based
T3 sequence (whole entry): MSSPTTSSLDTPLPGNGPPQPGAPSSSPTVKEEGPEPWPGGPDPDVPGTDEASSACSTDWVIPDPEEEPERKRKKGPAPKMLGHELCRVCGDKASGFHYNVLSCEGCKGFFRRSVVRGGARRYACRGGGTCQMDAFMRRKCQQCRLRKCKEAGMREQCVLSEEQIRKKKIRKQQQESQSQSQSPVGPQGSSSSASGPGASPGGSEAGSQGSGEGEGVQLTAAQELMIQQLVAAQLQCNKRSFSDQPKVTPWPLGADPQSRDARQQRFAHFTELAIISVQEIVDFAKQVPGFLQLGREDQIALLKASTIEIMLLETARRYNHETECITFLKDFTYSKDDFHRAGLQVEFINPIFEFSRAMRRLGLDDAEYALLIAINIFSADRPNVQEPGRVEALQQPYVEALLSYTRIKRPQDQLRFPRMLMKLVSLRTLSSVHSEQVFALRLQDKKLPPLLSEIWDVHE

[7] = biological target: T1, Bile acid receptor (Homo sapiens); assay: Antagonist activity at human FXR in HepG2 cells assessed as reversal of CDCA-induced reduction in CYP7A1 mRNA expression level at 0.1 to 1 uM dosed after 24 hrs starvation followed by CDCA addition and measured after 18 hrs by RT-PCR analysis
[8] = biological target: T1, Bile acid receptor (Homo sapiens); assay: Antagonist activity at human FXR in HepG2 cells assessed as reversal of CDCA-induced increase in SHP mRNA expression level at 0.1 to 1 uM dosed after 24 hrs starvation followed by CDCA addition and measured after 18 hrs by RT-PCR analysis
[9] = biological target: T4, Nuclear receptor subfamily 1 group I member 2 (Homo sapiens, UniProt O75469); assay: Antagonist activity at human PXR transfected in HepG2 at 5 uM in presence of PXR agonist rifaximin by luciferase reporter assay; type: cell-based; conditions: hepg2, 5 µM
T4 sequence (O75469 whole entry): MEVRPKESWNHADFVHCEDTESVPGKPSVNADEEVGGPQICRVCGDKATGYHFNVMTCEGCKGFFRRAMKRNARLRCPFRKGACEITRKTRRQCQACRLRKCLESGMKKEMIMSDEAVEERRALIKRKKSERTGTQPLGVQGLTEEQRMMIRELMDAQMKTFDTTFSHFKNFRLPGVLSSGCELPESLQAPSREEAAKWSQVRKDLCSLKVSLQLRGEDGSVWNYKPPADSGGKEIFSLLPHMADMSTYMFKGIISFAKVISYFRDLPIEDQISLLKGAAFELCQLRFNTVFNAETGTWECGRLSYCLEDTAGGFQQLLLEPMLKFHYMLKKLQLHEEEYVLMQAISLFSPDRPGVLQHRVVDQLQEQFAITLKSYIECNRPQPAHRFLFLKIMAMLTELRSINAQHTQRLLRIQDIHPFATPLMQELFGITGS

Which Activity [1] does the source give for c1ccc2cc(-c3noc(C4CCNCC4)n3)ccc2c1 here?
Its Activity is “inactive”.

And the Activity [2]?
The Activity was “Active”.

What about the Activity [3] of the same compound?
The Activity was “inactive”.

What about the Activity [4] of the same compound?
The Activity was “Active”.

And the solubility at 24 h [5]?
Its solubility at 24 h is 200 µM (≈ 55.9 µg/mL).

What about the Activity [6] of the same compound?
Its Activity is “inactive”.

What about the Activity [7] of the same compound?
Its Activity is “Active”.

What about the Activity [8] of the same compound?
Its Activity is “Active”.

What about the Activity [9] of the same compound?
The Activity was “Not Active”.
